Data published in patent US8138153B2, “Potassium channel modulator peptide” (National Centre for Biological Sciences, priority 2004, dated 2012).
Entries after “also recorded” stand apart in the source; their conditions may differ.

System: K^+ currents (voltage dependent potassium channels) in DRG neurons
Assay type: cell-based, Wistar rats

FHGGSWYRFPWGY-NH2 [Mo1659]
Effect on sustained (non-inactivating) K^+ current component: predominantly affects the sustained K^+ current component; also recorded: specifically acts on the non-inactivating K^+ currents
